Assays:
[1] = test system: CCL2; experiment: Steady state mRNA levels of immune genes in skin after topical application; type: in vivo, Balb/c mice; details: topical application to dorsal skin, six hour time point
Text: The topical application of the irreversible EGFR inhibitor PD168393 can enhance the elicitation phase of contact hypersensitivity in a manner that is associated with increases in several chemoattractant chemokines. During EGFRI therapy there are changes in immune gene expression even in clinically normal (non-inflamed) skin). To determine how EGFR inhibition alters immune gene expression, PD168393 or vehicle (10% DMSO in ethanol) was applied to the backs of Balb/c mice (5 mice per group) and steady state mRNA levels of several genes were measured. A six hour time point was selected for these experiments. […] This increase was observed independent of the reference housekeeping gene used in the analysis. In contrast, steady state levels of the housekeeping genes and several other genes analyzed were unchanged by topical PD168393 at this time point. These studies indicate that a single application of an EGFRI to mouse skin can alter the expression of chemokines that are known to influence immune cell trafficking into the skin.

[2] = test system: A/California/07/09 (H1N1) influenza virus; experiment: Hemagglutination inhibition (HAI) titers in sera of vaccinated mice; type: in vivo, BALB/c mice
[3] = test system: A/California/07/2009 virus; experiment: Neutralizing antibody titers by microneutralization assay in sera of vaccinated mice; type: in vivo, BALB/c mice; details: by week 8; vs vehicle-vaccinated and vaccine alone
[4] = test system: influenza-specific binding IgG antibodies; experiment: Virus-specific (total vaccine-reactive) antibody levels by ELISA; type: in vivo, BALB/c mice; details: between the three groups (EGFRI, vehicle, vaccine only)
[5] = test system: vaccine-specific IgM-secreting cells and IgG-secreting cells; experiment: Vaccine-specific antibody secreting cells (ELISPOT) in skin draining lymph nodes and spleen; type: in vivo, BALB/c mice
[6] = test system: IFN-γ-producing and IL-4-producing cells; experiment: IL-4 and IFN-γ secreting cells (ELISPOT) in skin-draining lymph nodes and spleens; type: in vivo, BALB/c mice
[7] = test system: contact hypersensitivity; details: topical application; associated with increases in several chemoattractant chemokines; cited from earlier work

Structure (SMILES): C=CC(=O)Nc1ccc2ncnc(Nc3cccc(Br)c3)c2c1 [PD168393, N-[4-(3-bromoanilino)quinazolin-6-yl]prop-2-enamide]
- steady state levels of the housekeeping genes and several other genes [1]: unchanged
- steady state mRNA levels of the chemokine CCL2 ([1]; vs vehicle (10% DMSO in ethanol)): statistically significant increase
- HAI titers, difference to vaccine alone or vehicle-vaccine group ([2]; as early as week 4): two-fold higher
- functionally relevant humoral immune responses ([2]; single application at site just prior to intradermal vaccination, vs vehicle (10% DMSO in ethanol)-treated mice): significantly higher
- HAI titers ([2]; single topical application at site just prior to intradermal vaccination, vs vehicle-vaccine and vaccine only): significantly higher
- NT titers [3]: increased relative to both control groups
- total vaccine-reactive antibodies [4]: no differences
- numbers of IgG-secreting cells ([5]; skin draining lymph nodes, 1 and 2 weeks post vaccination, vs vehicle-vaccinated mice): significantly higher
- number of IgG secreting cells ([5]; skin draining lymph nodes, day 14, vs vehicle-vaccinated mice): twice as high
- number of IgM secreting cells ([5]; skin draining lymph nodes, seven days post vaccination, vs vehicle-vaccinated mice): double
- number of cells producing influenza-specific antibodies ([5]; skin-draining lymph nodes, topical treatment prior to vaccination): increase
- cellular responses in the spleen (antibody secreting cells) ([5]; spleen, EGFRI- vs vehicle-vaccinated mice): without any notable differences
- numbers of activated influenza-specific immune cells as defined by IFN-γ and IL-4 secretion ([6]; one week post immunization, vs vehicle-vaccinated mice): higher numbers
- numbers of IL-4 secreting cells ([6]; skin-draining lymph nodes, one week post immunization, vs vehicle-vaccinated mice): 3 fold
- numbers of IFN-γ secreting cells ([6]; skin-draining lymph nodes, one week post-vaccination, vs vaccine-vehicle cohort): 4 fold
- levels of IL-4 secreting lymphocytes ([6]; skin-draining lymph nodes, two weeks post immunization, vs vehicle): significantly higher
- difference in numbers of IFN-γ secreting cells ([6]; skin-draining lymph nodes, two weeks post vaccination, vs vaccine-vehicle cohort): absent
- numbers of IL-4 and IFN-γ secreting cells in spleens ([6]; spleens, EGFRI- vs vehicle-vaccinated mice): no differences
- elicitation phase of contact hypersensitivity [7]: enhance

From patent US10034931B2, “Use of EGFR pathway inhibitors to increase immune responses to antigens” (Emory University, priority 2013, dated 2018)
